Assay [1] deals with T1, GnT-IVa lectin domain (Mus musculus, UniProt Q812G0).
T1 construct: gene Mgat4a; C-terminal lectin domain, residues 382-526, expressed in E. coli BL21(DE3) RIPL as GST fusion (pGEX6P-1), GST cleaved by PreScission protease; 15N-labelled for NMR
T1 sequence (Q812G0 382-526 isoform Q812G0-2): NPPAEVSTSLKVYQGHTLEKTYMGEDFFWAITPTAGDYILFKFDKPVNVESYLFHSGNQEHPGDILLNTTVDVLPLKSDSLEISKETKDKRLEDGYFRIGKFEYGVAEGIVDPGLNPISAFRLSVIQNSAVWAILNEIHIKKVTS
Nature of the assay: 1H-15N HSQC NMR titration (peak A). It counts as binding. The note with it: 20 mM sodium phosphate pH 6.0, 298 K, 0.4 mM protein; read-out: dissociation constant.

For assay [2], the target named is T2, soluble wild-type GnT-IVa enzyme (Mus musculus, UniProt Q812G0).
T2 construct: gene Mgat4a; luminal region, residues 60-526 (catalytic plus lectin domain), N-terminal His tag, secreted from COS7 cells (pcDNA-IH), Ni2+ column purified from medium
T2 sequence (Q812G0 60-526 isoform Q812G0-2 D445A): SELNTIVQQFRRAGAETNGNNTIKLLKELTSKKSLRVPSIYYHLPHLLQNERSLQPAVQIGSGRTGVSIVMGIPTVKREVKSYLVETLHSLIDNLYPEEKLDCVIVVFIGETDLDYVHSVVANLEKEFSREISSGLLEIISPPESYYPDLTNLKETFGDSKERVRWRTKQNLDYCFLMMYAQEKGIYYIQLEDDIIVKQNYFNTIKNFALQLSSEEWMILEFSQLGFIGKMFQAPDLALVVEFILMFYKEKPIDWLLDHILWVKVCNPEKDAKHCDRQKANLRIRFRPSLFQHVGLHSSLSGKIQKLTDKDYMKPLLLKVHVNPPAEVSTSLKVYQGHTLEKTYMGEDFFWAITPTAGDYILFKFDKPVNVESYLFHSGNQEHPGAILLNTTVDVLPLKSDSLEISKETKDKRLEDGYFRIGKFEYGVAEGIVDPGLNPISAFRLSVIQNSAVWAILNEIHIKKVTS
Nature of the assay: HPLC assay of PA-labelled product. It counts as biochemical. Particulars: 10 mM MnCl2, 125 mM MES pH 6.25, 200 mM GlcNAc, 37 °C.

Take `CC(=O)N[C@H]1[C@H](O[C@@H]2C(O)O[C@H](CO)[C@@H](O)[C@@H]2O)O[C@H](CO)[C@@H](O)[C@@H]1O` (stereo partly shown) [GlcNAcβ1-2Man]: the Kd in assay [1] came out at 320 µM.

On to `CC(=O)N[C@H]1C(O)O[C@H](CO)[C@@H](O)[C@@H]1O` (stereo partly shown) [GlcNAc], for which the Kd in assay [1] amounted to 3100 µM. For the compound `CC(=O)N[C@H]1[C@@H](OP(=O)(O)OP(=O)(O)OC[C@H]2O[C@@H](n3ccc(=O)[nH]c3=O)[C@H](O)[C@@H]2O)O[C@H](CO)[C@@H](O)[C@@H]1O` [UDP-GlcNAc], the Km in assay [2] (10 μM GnGnbi-PA, 0.625-20 mM UDP-GlcNAc) amounted to 3950 µM. With `CC(=O)N[C@H]1[C@H](O[C@@H]([C@H](O)[C@H](CNc2ccccn2)NC(C)=O)[C@H](O)CO)O[C@H](CO)[C@@H](O[C@@H]2O[C@H](CO[C@H]3O[C@H](CO)[C@@H](O)[C@H](O)[C@@H]3O[C@@H]3O[C@H](CO)[C@@H](O)[C@H](O)[C@H]3NC(C)=O)[C@@H](O)[C@H](O[C@H]3O[C@H](CO)[C@@H](O)[C@H](O)[C@@H]3O[C@@H]3O[C@H](CO)[C@@H](O)[C@H](O)[C@H]3NC(C)=O)[C@@H]2O)[C@@H]1O` [GnGnbi-PA], the Km in assay [2] (20 mM UDP-GlcNAc, 32-640 μM acceptor, labelled compound) turned out to be 1250 µM.

One may read the Km as the concentration of substrate that gives half-maximal velocity.

The values above are taken from paper PMC9296478, “Discovery of a lectin domain that regulates enzyme activity in mouse N-acetylglucosaminyltransferase-IVa (MGAT4A)” (Communications Biology, 2022).
